Laboratory results from article PMC8253220, “Molecular design, synthesis and in vitro biological evaluation of thienopyrimidine–hydroxamic acids as chimeric kinase HDAC inhibitors: a challenging approach to combat cancer” (Journal of Enzyme Inhibition and Medicinal Chemistry, 2021).
Several values for one entry are separate records, joined by “and”; a condition that tells them apart may be missing. Identical values can stand only once.

Assays:
Type in all cases: cell-based, human
MDA-MB-231/ATCC = assay: NCI one-dose screen; conditions: Breast MDA-MB-231/ATCC, 10 µM single dose
Protocol: (§1) All of the synthesised structures were selected and submitted to NCI based on computer modelling techniques and the degree of diversity of structures for the evaluation of their antiproliferative activity. The 20 synthesised compounds were selected with their respective NCI codes [NCS D-820157- NCS D-820176] for the inhibition percent assay at an initial single dose of 10 μM on the full NCI 60 cell panel, where the mean graph of the percent growth for all compounds on the full NCI cell panel is evaluated, compared to the untreated control cells (Supplementary Material). In vitro cell line inhibition % of all synthesised compounds is represented in (Table 1 of Supplementary Material).
(§2) All of the synthesised compounds (20) were submitted to NCI and selected for in vitro anticancer assay against a panel of 60 cancer cell lines. The methodology of assay and calculations is as reported.

HOP-62 = assay: NCI one-dose screen; conditions: NSCLC HOP-62, 10 µM single dose
Protocol: as §1, §2

OVCAR-5 = assay: NCI one-dose screen; conditions: Ovarian OVCAR-5, 10 µM single dose
Protocol: as §1, §2

MDA-MB-435 = assay: NCI one-dose screen; conditions: Melanoma MDA-MB-435, 10 µM single dose
Protocol: as §1, §2

OVCAR-3 = assay: NCI one-dose screen; conditions: Ovarian OVCAR-3, 10 µM single dose
Protocol: as §1, §2

SF-539 = assay: NCI one-dose screen; conditions: for Growth Percent: CNS SF-539, 10 µM single dose
Protocol: as §1, §2

NCI-H322M = assay: NCI one-dose screen; conditions: NSCLC NCI-H322M, 10 µM single dose
Protocol: as §1, §2

OVCAR-4 = assay: NCI one-dose screen; conditions: Ovarian OVCAR-4, 10 µM single dose
Protocol: as §1, §2

SN12C = assay: NCI one-dose screen; conditions: Renal SN12C, 10 µM single dose
Protocol: as §1, §2

SK-MEL-5 = assay: NCI one-dose screen; conditions: Melanoma SK-MEL-5, 10 µM single dose
Protocol: as §1, §2

HS 578T = assay: NCI one-dose screen; conditions: Breast HS 578T, 10 µM single dose
Protocol: as §1, §2

SF-295 = assay: NCI one-dose screen; conditions: CNS SF-295, 10 µM single dose
Protocol: as §1, §2

RXF 393 = assay: NCI one-dose screen; conditions: Renal RXF 393, 10 µM single dose
Protocol: as §1, §2

BT-549 = assay: NCI one-dose screen; conditions: Breast BT-549, 10 µM single dose
Protocol: as §1, §2

HL-60(TB) = assay: NCI one-dose screen; conditions: Leukemia HL-60(TB), 10 µM single dose
Protocol: as §1, §2

A549/ATCC = assay: NCI one-dose screen; conditions: NSCLC A549/ATCC, 10 µM single dose
Protocol: as §1, §2

MCF7 = assay: NCI one-dose screen; conditions: for Growth Percent: Breast MCF7, 10 µM single dose
Protocol: as §1, §2

HCC-2998 = assay: NCI one-dose screen; conditions: Colon HCC-2998, 10 µM single dose
Protocol: as §1, §2

DU-145 = assay: NCI one-dose screen; conditions: Prostate DU-145, 10 µM single dose
Protocol: as §1, §2

U251 = assay: NCI one-dose screen; conditions: for Growth Percent: CNS U251, 10 µM single dose
Protocol: as §1, §2

UO-31 = assay: NCI one-dose screen; conditions: for Growth Percent: Renal UO-31, 10 µM single dose
Protocol: as §1, §2

PC-3 = assay: NCI one-dose screen; conditions: Prostate PC-3, 10 µM single dose
Protocol: as §1, §2

MDA-MB-468 = assay: NCI one-dose screen; conditions: Breast MDA-MB-468, 10 µM single dose
Protocol: as §1, §2

UACC-257 = assay: NCI one-dose screen; conditions: Melanoma UACC-257, 10 µM single dose
Protocol: as §1, §2

OVCAR-8 = assay: NCI one-dose screen; conditions: Ovarian OVCAR-8, 10 µM single dose
Protocol: as §1, §2

RPMI-8226 = assay: NCI one-dose screen; conditions: Leukemia RPMI-8226, 10 µM single dose
Protocol: as §1, §2

NCI-H460 = assay: NCI one-dose screen; conditions: NSCLC NCI-H460, 10 µM single dose
Protocol: as §1, §2

KM12 = assay: NCI one-dose screen; conditions: for Growth Percent: Colon KM12, 10 µM single dose
Protocol: as §1, §2

HCT-15 = assay: NCI one-dose screen; conditions: Colon HCT-15, 10 µM single dose
Protocol: as §1, §2

EKVX = assay: NCI one-dose screen; conditions: NSCLC EKVX, 10 µM single dose
Protocol: as §1, §2

HOP-92 = assay: NCI one-dose screen; conditions: NSCLC HOP-92, 10 µM single dose
Protocol: as §1, §2

TK-10 = assay: NCI one-dose screen; conditions: Renal TK-10, 10 µM single dose
Protocol: as §1, §2

SK-OV-3 = assay: NCI one-dose screen; conditions: Ovarian SK-OV-3, 10 µM single dose
Protocol: as §1, §2

SK-MEL-28 = assay: NCI one-dose screen; conditions: Melanoma SK-MEL-28, 10 µM single dose
Protocol: as §1, §2

CAKI-1 = assay: NCI one-dose screen; conditions: Renal CAKI-1, 10 µM single dose
Protocol: as §1, §2

full NCI 60 cell panel = assay: NCI one-dose screen, whole panel statistics; conditions: 1.00E-5 Molar; for Mean Growth Percent: mean over panel
Protocol: as §1, §2

## COc1cccc(NC(=O)Nc2ccc(Nc3ncnc4sc(C(=O)NO)c(C)c34)cc2)c1 [Compound 7b, 1–(4-(6-(hydroxycarbamoyl)-5-methylthieno[2,3-d]pyrimidin-4-ylamino)phenyl)-3–(3-methoxyphenyl)urea]
MDA-MB-231/ATCC
  Growth Percent: 99.5% and 99.59%
HOP-62
  Growth Percent: 101.6% and 101.62%
OVCAR-5
  Growth Percent: 102.8% and 102.86%
MDA-MB-435
  Growth Percent: 101.5% and 101.59%
OVCAR-3
  Growth Percent: 106.5% and 106.55%
SF-539
  Growth Percent: 97.2% and 97.26%
NCI-H322M
  Growth Percent: 103.7%
OVCAR-4
  Growth Percent: 101.8% and 101.82%
SN12C
  Growth Percent: 99.1% and 99.12%
SK-MEL-5
  Growth Percent: 99.5%
HS 578T
  Growth Percent: 102.4% and 102.45%
SF-295
  Growth Percent: 94.5% and 94.51%
RXF 393
  Growth Percent: 104.4%
BT-549
  Growth Percent: 99.5% and 99.56%
HL-60(TB)
  Growth Percent: 103.1% and 103.15%
A549/ATCC
  Growth Percent: 101.8% and 101.81%
MCF7
  Growth Percent: 95.2% and 95.27%
HCC-2998
  Growth Percent: 103.6% and 103.61%
DU-145
  Growth Percent: 103.1% and 103.17%
U251
  Growth Percent: 101.4% and 101.41%
UO-31
  Growth Percent: 83.4% and 83.47%
PC-3
  Growth Percent: 101.6% and 101.65%
MDA-MB-468
  Growth Percent: 98.8% and 98.87%
UACC-257
  Growth Percent: 100.8% and 100.87%
OVCAR-8
  Growth Percent: 96.6% and 96.69%
RPMI-8226
  Growth Percent: 110.6% and 110.62%
NCI-H460
  Growth Percent: 100.7% and 100.73%
KM12
  Growth Percent: 102.7% and 102.79%
HCT-15
  Growth Percent: 99.0% and 99.07%
EKVX
  Growth Percent: 92.8% and 92.81%
HOP-92
  Growth Percent: 108.4% and 108.42%
TK-10
  Growth Percent: 103.9% and 103.96%
SK-OV-3
  Growth Percent: 128.5% and 128.59%
SK-MEL-28
  Growth Percent: 111.1% and 111.16%
CAKI-1
  Growth Percent: 99.4% and 99.45%
Full NCI 60 cell panel
  Delta (one dose mean graph): 18.14%
  Range (one dose mean graph): 45.12%
  Mean Growth Percent: 101.61%

## Cc1c(C(=O)NO)sc2ncnc(Nc3ccc(NC(=O)Nc4cccc(C(F)(F)F)c4)cc3)c12 [Compound 7c, 1–(4-(6-(hydroxycarbamoyl)-5-methylthieno[2,3-d]pyrimidin-4-ylamino)phenyl)-3–(3-(trifluoromethyl)phenyl)urea]
MDA-MB-231/ATCC
  Growth Percent: 95.2% and 95.26%
HOP-62
  Growth Percent: 93.7% and 93.71%
OVCAR-5
  Growth Percent: 114.3% and 114.33%
MDA-MB-435
  Growth Percent: 100.6% and 100.67%
OVCAR-3
  Growth Percent: 104.2% and 104.27%
SF-539
  Growth Percent: 61.4% and 61.49%
SF-539; Homo sapiens, CNS SF-539, 10 μM
  inhibition at 10 µM: 38.6%
NCI-H322M
  Growth Percent: 99.6% and 99.69%
OVCAR-4
  Growth Percent: 103.4% and 103.45%
SN12C
  Growth Percent: 97.89%
SK-MEL-5
  Growth Percent: 99.6% and 99.67%
HS 578T
  Growth Percent: 90.3% and 90.32%
SF-295
  Growth Percent: 95.1% and 95.16%
RXF 393
  Growth Percent: 106.61%
BT-549
  Growth Percent: 115.1% and 115.17%
HL-60(TB)
  Growth Percent: 102.0% and 102.08%
A549/ATCC
  Growth Percent: 100.4% and 100.47%
MCF7
  Growth Percent: 88.4% and 88.42%
MCF7; Homo sapiens, breast MCF7, 10 μM
  inhibition at 10 µM: 11.6%
HCC-2998
  Growth Percent: 112.6% and 112.66%
DU-145
  Growth Percent: 104.5% and 104.51%
U251
  Growth Percent: 73.1% and 73.13%
U251; Homo sapiens, U-251, CNS U251, 10 μM
  inhibition at 10 µM: 26.9%
UO-31; Homo sapiens, renal UO-31, 10 μM
  inhibition at 10 µM: 24.7%
UO-31
  Growth Percent: 75.7% and 75.79%
PC-3
  Growth Percent: 91.1% and 91.19%
MDA-MB-468
  Growth Percent: 109.16%
UACC-257
  Growth Percent: 106.3% and 106.33%
OVCAR-8
  Growth Percent: 100.4% and 100.41%
RPMI-8226
  Growth Percent: 93.27%
NCI-H460
  Growth Percent: 101.7% and 101.73%
KM12
  Growth Percent: 66.3% and 66.34%
KM12; Homo sapiens, colon KM12, 10 μM
  inhibition at 10 µM: 33.7%
HCT-15
  Growth Percent: 97.7% and 97.77%
EKVX
  Growth Percent: 95.7% and 95.77%
HOP-92
  Growth Percent: 119.3% and 119.39%
TK-10
  Growth Percent: 116.24%
SK-OV-3
  Growth Percent: 113.0% and 113.07%
SK-MEL-28
  Growth Percent: 108.2% and 108.23%
CAKI-1
  Growth Percent: 90.57%
Full NCI 60 cell panel
  Delta (one dose mean graph): 43.18%
  Range (one dose mean graph): 65.35%
  Mean Growth Percent: 97.22%

## Cc1c(C(=O)NCCC(=O)NO)sc2ncnc(Nc3ccc(NC(=O)Nc4ccccc4)cc3)c12 [Compound 11a, 1–(4-(6-((3-(hydroxyamino)-3-oxopropyl)carbamoyl)-5-methylthieno[2,3-d]pyrimidin-4-ylamino)phenyl)-3-phenylurea]
MDA-MB-231/ATCC
  Growth Percent: 97.6% and 97.67%
HOP-62
  Growth Percent: 102.3% and 102.39%
OVCAR-5
  Growth Percent: 106.2% and 106.26%
MDA-MB-435
  Growth Percent: 102.2% and 102.21%
OVCAR-3
  Growth Percent: 102.6% and 102.61%
SF-539
  Growth Percent: 90.3% and 90.31%
NCI-H322M
  Growth Percent: 101.2% and 101.26%
OVCAR-4
  Growth Percent: 101.4% and 101.41%
SN12C
  Growth Percent: 101.4% and 101.42%
SK-MEL-5
  Growth Percent: 99.1% and 99.18%
HS 578T
  Growth Percent: 99.6% and 99.62%
SF-295
  Growth Percent: 95.2% and 95.29%
RXF 393
  Growth Percent: 107.3% and 107.33%
BT-549
  Growth Percent: 104.9%
HL-60(TB)
  Growth Percent: 103.5% and 103.58%
A549/ATCC
  Growth Percent: 97.7% and 97.77%
MCF7
  Growth Percent: 92.3%
HCC-2998
  Growth Percent: 98.0% and 98.02%
DU-145
  Growth Percent: 110.81%
U251
  Growth Percent: 96.9% and 96.93%
UO-31
  Growth Percent: 83.7% and 83.77%
PC-3
  Growth Percent: 101.7% and 101.73%
MDA-MB-468
  Growth Percent: 101.3% and 101.31%
UACC-257
  Growth Percent: 101.0% and 101.08%
OVCAR-8
  Growth Percent: 101.0% and 101.03%
RPMI-8226
  Growth Percent: 109.4%
NCI-H460
  Growth Percent: 101.8% and 101.81%
KM12
  Growth Percent: 103.2% and 103.23%
HCT-15
  Growth Percent: 95.7% and 95.77%
EKVX
  Growth Percent: 94.6% and 94.62%
HOP-92
  Growth Percent: 106.7% and 106.72%
TK-10
  Growth Percent: 97.6% and 97.69%
SK-OV-3
  Growth Percent: 123.7% and 123.79%
SK-MEL-28
  Growth Percent: 105.1% and 105.11%
CAKI-1
  Growth Percent: 94.5% and 94.51%
Full NCI 60 cell panel
  Delta (one dose mean graph): 21.26%
  Range (one dose mean graph): 44.07%
  Mean Growth Percent: 100.98%
